Measured values published in patent publication US10087188B2, “Benzamide imidazopyrazine Btk inhibitors” (MERCK SHARP & DOHME CORP., priority 2014, dated 2018).
Where two headings read alike, the source gives them in different places.

What was measured:
[1] = target: BTK enzyme (recombinant full-length BTK, hBTK) (Homo sapiens (Human), UniProt Q06187); assay: Btk enzyme activity assay, LANCE TR-FRET; assay type: biochemical; conditions: 50 pM hBTK, 2 μM biotin-A5-peptide, 25 μM ATP; 60 minute compound & enzyme incubation; read-out: BTK binding IC50
Protocol: Btk Enzyme Activity Assay Methods
BTK enzymatic activity was determined with the LANCE (Lanthanide Chelate Excite) TR-FRET (Time-resolved fluorescence resonance energy transfer) assay. […] After 60 minutes incubation with detection reagents, reaction plates were read on a PerkinElmer EnVision plate reader using standard TR-FRET protocol.

HeLa cells = assay: [3H] Adenosine uptake assay; assay type: cell-based; conditions: accumulation of tritiated adenosine into HeLa cells, compound concentration range 10 μM to 0.032 nM, read-out: ADU inhibition IC50 (adenosine uptake inhibition potency)
Method in brief: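 HeLa cells in HBSS + 5% FBS preincubated 30 min at ambient temperature with compound (0.25% DMSO), then [3H]adenosine (500 nM stock) added for 60 min. Uptake measured by scintillation proximity counting; IC50 from 4-parameter fit of counts vs log concentration.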

Chain of BTK enzyme (recombinant full-length BTK, hBTK) (Q06187 whole entry): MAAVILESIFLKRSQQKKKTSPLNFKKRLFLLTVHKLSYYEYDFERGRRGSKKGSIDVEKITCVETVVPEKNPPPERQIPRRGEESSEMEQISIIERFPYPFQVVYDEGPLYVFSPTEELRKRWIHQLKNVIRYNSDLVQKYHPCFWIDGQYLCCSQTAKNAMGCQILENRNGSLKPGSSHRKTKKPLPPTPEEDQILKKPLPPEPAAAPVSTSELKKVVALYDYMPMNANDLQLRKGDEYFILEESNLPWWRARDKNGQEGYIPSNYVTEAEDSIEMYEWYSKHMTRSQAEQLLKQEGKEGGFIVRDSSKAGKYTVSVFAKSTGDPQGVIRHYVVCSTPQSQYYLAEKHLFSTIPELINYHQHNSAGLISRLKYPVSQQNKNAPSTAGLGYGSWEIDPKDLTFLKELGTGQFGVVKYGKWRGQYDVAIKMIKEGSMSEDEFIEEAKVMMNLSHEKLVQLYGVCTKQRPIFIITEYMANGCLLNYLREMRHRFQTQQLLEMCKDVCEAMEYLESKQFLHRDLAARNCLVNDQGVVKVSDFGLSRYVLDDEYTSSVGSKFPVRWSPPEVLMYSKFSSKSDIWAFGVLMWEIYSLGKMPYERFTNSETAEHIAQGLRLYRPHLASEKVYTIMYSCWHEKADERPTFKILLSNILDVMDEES

Compound | IC50 [1] [µM] | IC50 (HeLa cells; Homo sapiens, HeLa) [µM] | IC50 (HeLa cells) [µM]
Nc1nccn2c(-c3ccc(C(=O)O)c(F)c3)nc(-c3ccc(C(=O)Nc4cc(C(F)(F)F)ccn4)cc3)c12 [Example 25, 4-[8-amino-1-(4-{[4-(trifluoromethyl)pyridin-2-yl]carbamoyl}phenyl)imidazo[1,5-a]pyrazin-3-yl]-2-fluorobenzoic acid] | 0.0017 | 6.11 | 
C[C@@]1(C(=O)O)CCC[C@@](C)(c2nc(-c3ccc(C(=O)Nc4cc(C(F)(F)F)ccn4)cc3)c3c(N)nccn23)C1 [Example 138, (1R,3R)-3-[8-amino-1-(4-{[4-(trifluoromethyl)pyridin-2-yl]carbamoyl}phenyl)imidazo[1,5-a]pyrazin-3-yl]-1,3-dimethylcyclohexane-carboxylic acid] | 0.00034 |  | 6.07
C[C@H]1CO[C@@H](c2nc(-c3ccc(C(=O)Nc4cc(C(F)F)ccn4)cc3F)c3c(N)nccn23)CN1[C@H]1CC[C@](C)(C(=O)O)CC1 [Example 208, trans-4-{(2R,5S)-2-[8-amino-1-(4-{[4-(difluoromethyl)pyridin-2-yl]carbamoyl}-2-fluorophenyl)imidazo[1,5-a]pyrazin-3-yl]-5-methylmorpholin-4-yl}-1-methylcyclohexanecarboxylic acid] | 0.923 | 10 | 
Nc1nccn2c(N3CC[C@@H](C(=O)O)C3)nc(-c3ccc(C(=O)Nc4cc(C(F)(F)F)ccn4)cc3)c12 [Example 36, (3R)-1-[8-amino-1-(4-{[4-(trifluoromethyl)pyridin-2-yl]carbamoyl}phenyl)imidazo[1,5-a]pyrazin-3-yl]pyrrolidine-3-carboxylic acid] | 0.0026 | 4.7 | 
Nc1nccn2c(-c3ccc(C(=O)O)nc3)nc(-c3ccc(C(=O)Nc4cc(C(F)(F)F)ccn4)cc3)c12 [Example 29, 5-[8-amino-1-(4-{[4-(trifluoromethyl)pyridin-2-yl]carbamoyl}phenyl)imidazo[1,5-a]pyrazin-3-yl]pyridine-2-carboxylic acid] | 0.0113 | 7.5 | 
CCOc1cc(C(=O)Nc2cc(C(F)(F)F)ccn2)ccc1-c1nc(C23CCCC(C(=O)O)(CC2)CC3)n2ccnc(N)c12 [Example 67, 5-[8-amino-1-(2-ethoxy-4-{[4-(trifluoromethyl)pyridin-2-yl]carbamoyl}phenyl)imidazo[1,5-a]pyrazin-3-yl]bicyclo[3.2.2] nonane-1-carboxylic acid] | 0.00039 | 4.91 | 
Nc1nccn2c([C@@H]3CCC[C@H](C(=O)O)C3)nc(-c3ccc(C(=O)Nc4cc(C5CC5)ccn4)cc3F)c12 [Example 9, (1S,3R)-3-(8-amino-1-{4-[(4-cyclopropyl-pyridin-2-yl)carbamoyl]-2-fluorophenyl}imidazo[1,5-a]pyrazin-3-yl)cyclohexane-carboxylic acid] | 0.0012 | 4.4 | 
CCOc1cc(C(=O)Nc2cc(C(F)(F)F)ccn2)cc(F)c1-c1nc([C@@H]2CC[C@](C)(C(=O)O)C2(C)C)n2ccnc(N)c12 [Example 113, (1S,3R)-3-[8-amino-1-(2-ethoxy-6-fluoro-4-{[4-(trifluoromethyl)pyridin-2-yl]carbamoyl}phenyl)imidazo[1,5-a]pyrazin-3-yl]-1,2,2-trimethylcyclopentane carboxylic acid] | 0.00048 | 5.95 | 
COc1cc(C(=O)Nc2cc(C(F)(F)F)ccn2)cc(F)c1-c1nc(C2(C)CCC(C)(C(=O)O)CC2)n2ccnc(N)c12 (centres unmarked) [Example 127, 4-[8-amino-1-(2-fluoro-6-methoxy-4-{[4-(trifluoromethyl)pyridin-2-yl]carbamoyl}phenyl)imidazo[1,5-a]pyrazin-3-yl]-1,4-dimethylcyclohexane-carboxylic acid] | 0.0013 | 10 | 
C[C@@]1(C(=O)O)CCN(c2nc(-c3ccc(C(=O)Nc4cc(C(F)(F)F)ccn4)cc3)c3c(N)nccn23)C1 [Example 44, (3R)-1-[8-amino-1-(4-{[4-(trifluoromethyl)pyridin-2-yl]carbamoyl}phenyl)imidazo[1,5-a]pyrazin-3-yl]-3-methylpyrrolidine-3-carboxylic acid] | 0.0018 | 8.74 | 
CCOc1cc(C(=O)Nc2cc(C(F)(F)F)ccn2)c(F)cc1-c1nc(C23CCC(C(=O)O)(CC2)CC3)n2ccnc(N)c12 [Example 149, 4-[8-amino-1-(2-ethoxy-5-fluoro-4-{[4-(trifluoromethyl)pyridin-2-yl]carbamoyl}phenyl)imidazo[1,5-a]pyrazin-3-yl]bicyclo[2.2.2] octane-1-carboxylic acid] | 0.00056 | 6.87 | 
Nc1nccn2c(-c3ccc(C(=O)O)cc3)nc(-c3ccc(C(=O)Nc4cc(C(F)(F)F)ccn4)cc3)c12 [Example 26, 4-[8-amino-1-(4-{[4-(trifluoromethyl)pyridin-2-yl]carbamoyl}phenyl)imidazo[1,5-a]pyrazin-3-yl]benzoic acid] | 0.00097 | 5.58 | 
CC(C)(C(=O)O)N1CC(=O)N2C[C@H](c3nc(-c4ccc(C(=O)Nc5cc(C(F)(F)F)ccn5)cc4)c4c(N)nccn34)CC[C@H]2C1 [Example 43, 2-{(7R,9aS)-7-[8-amino-1-(4-{[4-(trifluoromethyl)pyridin-2-yl]carbamoyl}phenyl)imidazo[1,5-a]pyrazin-3-yl]-4-oxooctahydro-2H-pyrido[1,2-a]pyrazin-2-yl}-2-methylpropanoic acid] | 0.00041 | 4.19 | 
CC1(C)[C@H](c2nc(-c3ccc(C(=O)Nc4cc(C(F)(F)F)ccn4)cc3Cl)c3c(N)nccn23)CC[C@]1(C)C(=O)O [Example 129, (1S,3R)-3-[8-amino-1-(2-chloro-4-{[4-(trifluoromethyl)pyridin-2-yl]carbamoyl}phenyl)imidazo[1,5-a]pyrazin-3-yl]-1,2,2-trimethylcyclopentane carboxylic acid] | 0.00059 | 5.2 | 
CCOc1cc(C(=O)Nc2cc(C(F)(F)F)ccn2)ccc1-c1nc([C@H]2CC[C@@H](C(C)C)[C@@H](C(=O)O)C2)n2ccnc(N)c12 [Example 101, (1S,2S,5S)-5-[8-amino-1-(2-ethoxy-4-{[4-(trifluoromethyl)pyridin-2-yl]carbamoyl}phenyl)imidazo[1,5-a]pyrazin-3-yl]-2-(1-methylethyl) cyclohexane-carboxylic acid] | 0.002 | 10 | 
CCOc1cc(C(=O)Nc2cc(C(F)(F)F)ccn2)c(F)cc1-c1nc(C2(C)CCC(C)(C(=O)O)CC2)n2ccnc(N)c12 (centres unmarked) [Example 120, 4-[8-amino-1-(2-ethoxy-5-fluoro-4-{[4-(trifluoromethyl)pyridin-2-yl]carbamoyl}phenyl)imidazo[1,5-a]pyrazin-3-yl]-1,4-dimethylcyclohexane-carboxylic acid] | 0.004 | 10 | 
CCOc1cc(C(=O)Nc2cc(C(F)(F)F)ccn2)ccc1-c1nc(C23CCC(C(=O)O)(CC2(F)F)C(F)(F)C3)n2ccnc(N)c12 (centres unmarked) [Example 66, 4-[8-amino-1-(2-ethoxy-4-{[4-(trifluoromethyl)pyridin-2-yl]carbamoyl}phenyl)imidazo[1,5-a]pyrazin-3-yl]-2,2,5,5-tetrafluorobicyclo [2.2.2]octane-1-carboxylic acid] | 0.00047 | 10 | 
CCOc1cc(C(=O)Nc2cc(C(F)(F)F)ccn2)ccc1-c1nc([C@H]2CN(C3CCC(C)(C(=O)O)CC3)[C@@H](C)CO2)n2c(Cl)cnc(N)c12 (stereo partly drawn) [Example 189, 4-{(2R,5S)-2-[8-amino-5-chloro-1-(2-ethoxy-4-{[4-(trifluoromethyl)pyridin-2-yl]carbamoyl}phenyl)imidazo [1,5-a]pyrazin-3-yl]-5-methylmorpholin-4-yl}-1-methylcyclohexanecarboxylic acid] | 0.0019 | 4.84 | 
C[C@H]1CO[C@@H](c2nc(-c3ccc(C(=O)Nc4cc(C(F)(F)F)ccn4)cc3F)c3c(N)ncc(Cl)n23)CN1[C@H]1CC[C@](C)(C(=O)O)CC1 [Example 200, trans-4-{(2R,5S)-2-[8-amino-5-chloro-1-(2-fluoro-4-{[4-(trifluoromethyl)pyridin-2-yl]carbamoyl}phenyl)imidazo [1,5-a]pyrazin-3-yl]-5-methylmorpholin-4-yl}-1-methylcyclohexanecarboxylic acid] | 0.00042 | 1.69 | 
CC1(C)[C@H](C(=O)O)CC[C@]1(C)c1nc(-c2ccc(C(=O)Nc3cc(C(F)(F)F)ccn3)cc2)c2c(N)nccn12 [Example 141, (1R,3S)-3-[8-amino-1-(4-{[4-(trifluoromethyl)pyridin-2-yl]carbamoyl}phenyl)imidazo[1,5-a]pyrazin-3-yl]-2,2,3-trimethylcyclopentane carboxylic acid] | 0.0052 | 2.98 | 
C[C@H]1CO[C@@H](c2nc(-c3ccc(C(=O)Nc4cc(C(F)(F)F)ccn4)cc3)c3c(N)nccn23)CN1[C@H]1CC[C@@](C)(C(=O)O)CC1 [Example 192, cis-4-{(2R,5S)-2-[8-amino-1-(4-{[4-(trifluoromethyl)pyridin-2-yl]carbamoyl}phenyl)imidazo [1,5-a]pyrazin-3-yl]-5-methylmorpholin-4-yl}-1-methylcyclohexanecarboxylic acid] | 0.0028 | 3.08 | 
CCOc1cc(C(=O)Nc2cc(C(F)(F)F)ccn2)ccc1-c1nc(C23C4C5C2C2C3C4C52C(=O)O)n2ccnc(N)c12 (centres unmarked) [Example 71, 4-(8-amino-1-(2-ethoxy-4-((4-(trifluoromethyl)pyridin-2-yl)carbamoyl)phenyl)imidazo[1,5-a]pyrazin-3-yl)cubane-1-carboxylic acid] | 0.00065 | 2.47 | 
